According to US5068190A, “N-acetylhexosamine-dehydrogenase, process for producing same, method for the quantitative analysis of N-acetylglucosamine or N-acetylgalactosamine using same and kit for use in the quantitative analysis” (Noda Institute for Scientific Research, priority 1988, dated 1991):

Tested on: N-acetylhexosamine-dehydrogenase (N-AHDH)
Test: Influence of inhibitor on enzyme activity
Type: biochemical, Pseudomonas sp. No. 53
Details: not given
Method: In the table presented above, enzyme activity was measured in a solution containing 2 mM of metallic ion or inhibitor. There is known no substance particularly contributing to activation and stabilization.
(§1) To 1.8 ml of 0.1 M glycine-sodium hydroxide buffer (pH 9.5) is added 0.1 ml of 60 mM […] solution. After keeping the mixture at 37° C. for 10 minutes, 10 microliters of enzyme solution is added, and subsequently 0.1 ml of 0.3M N-acetylglucosamine solution is mixed to start the reaction. The reaction mixture is immediately transferred into an absorbance measurement cell (1 cm path) kept at 37° C., and absorbance is measured at intervals of one minute at a wavelength of 340 nm over a period of 5 minutes or, if desired, over a longer period of time. A quantity of enzyme capable of forming one micromole of NADH per one minute is taken as "one unit".

SMILES | Residual activity
Oc1cccc2cccnc12 [8-Hydroxyquinoline] | 110

Same assay, conditions: solution containing 2 mM of metallic ion or inhibitor

SMILES | Residual activity [%]
NC(=O)CI [Iodoacetamide] | 104
c1cnc2c(c1)ccc1cccnc12 [o-Phenanthroline] | 104
O=S(=O)([O-])[O-].[Cu+2] [CuSO4] | 94
[Cl][Hg][Cl] [HgCl2] | 35
[N-]=[N+]=[N-].[Na+] [NaN3] | 89
CCCCCCCCCCCCOS(=O)(=O)O [SDS] | 62
[Ca+2].[Cl-].[Cl-] [CaCl2] | 95
O=S(=O)([O-])[O-].[Cd+2] [CdSO4] | 92
O=S(=O)([O-])[O-].[Mn+2] [MnSO4] | 96
c1ccc(-c2ccccn2)nc1 [α, α'-Dipyridyl] | 107
O=C(O)CN(CCN(CC(=O)O)CC(=O)O)CC(=O)O [EDTA] | 101
O=C(O)c1cc[c]([Hg][Cl])cc1 [PCMB] | 97
O=S(=O)([O-])[O-].[Zn+2] [ZnSO4] | 95

Tested on: N-acetylhexosamine-dehydrogenase (N-AHDH)
Test: Action and substrate specificity of the enzyme
Type: biochemical, Pseudomonas sp. No. 53
Details: in the presence of NAD+
Method: As shown in the following reaction scheme, this enzyme oxidizes N-acetylglucosamine or N-acetylgalactosamine to N-acetylglucosaminolactoneor N-acetylgalactosaminolactone in the presence of NAD^+ and, at the same time, reduces the NAD^+ to NADH. [drawing 1]
as §1

Action of the enzyme upon the sugar (substrate specificity) | SMILES
oxidizes | CC(=O)N[C@H]1C(O)O[C@H](CO)[C@@H](O)[C@@H]1O (stereo partly shown) [N-acetylglucosamine]
only a slight action | CC(=O)N[C@@H]1C(O)O[C@H](CO)[C@@H](O)[C@@H]1O (stereo partly shown) [N-acetylmannosamine]
oxidizes | CC(=O)N[C@H]1C(O)O[C@H](CO)[C@H](O)[C@@H]1O (stereo partly shown) [N-acetylgalactosamine]

SMILES | Action of the enzyme upon the sugar (substrate specificity)
CC(=O)N[C@H]1[C@H](O[C@H]2[C@H](O)[C@@H](NC(C)=O)C(O)O[C@@H]2CO)O[C@H](CO)[C@@H](O)[C@@H]1O (stereo partly shown) [N,N'-diacetylchitobiose] | no action at all or hardly exercises an action

Same assay, conditions: in the presence of NAD+; listed as acetylchitobiose

Action of the enzyme upon the sugar (substrate specificity) | SMILES
does not act | CC(=O)N[C@H]1[C@H](O[C@H]2[C@H](O)[C@@H](NC(C)=O)C(O)O[C@@H]2CO)O[C@H](CO)[C@@H](O)[C@@H]1O (stereo partly shown) [N,N'-diacetylchitobiose]
